Reference: patent publication US20210403864A1, “METHODS AND COMPOSITIONS FOR TREATING ACTIVATED G-ALPHA Q MUTANT CANCERS OR MELANOCYTIC MALIGNANCIES” (Memorial Sloan Kettering Cancer Center, priority 2018, published 2021)
pIC50: −log10 of the molar value.

Experiments:
[1] = test system: OMM1.3 cells; experiment: Cell proliferation dose response, CellTiter-glo 2.0; assay type: cell-based, human; conditions: 5 days, approximate
Experimental: (§1) Data are expressed as the percentage RLU relative to that observed with vehicle. Error bars, s.e.m. from triplicate samples.
(§2) Cell Culture and in vitro analysis. Mutation dependent melan-a cells were generated by transducing cells with cDNAs in MSCV-PURO (retrovirus) and then selecting cells with puromycin (1 μg/ml) for two days. TPA (Sigma-Aldrich, St. Louis, Mo.) was then withdrawn from cultures. Cells with activating mutations (CYSLTR2^L129Q, GNAQ^G48V/R183Q/Q209L, KRAS^G12V, and BRAF^V600E) continued to proliferate over several passages (>2 weeks) and were then validated with qRT-PCR and immunoblots. Vector and WT controls were unable to maintain proliferation after a couple passages upon TPA withdrawal. All cells were cultured in media containing 10% FBS, L-glutamine ([…]), penicillin (100 U/ml), streptomycin (100 μg/ml). Melan-a cells provided by D. Bennett, St. George's Hospital, University of London (Johnson C P, et al., PLoS One. 12(6):1-17 (2017)), were cultured in RPMI supplemented with 200 nM TPA unless otherwise noted. HEK293T (from ATCC, Manassas, Va.) cells were cultured in DMEM-Q and UVM cells were cultured in RPMI. All cells tested negative for mycoplasma. Cell growth assays and YM dose response curves were assayed using CellTiter-glo 2.0 (Promega, Madison, Wis.) at given time points or after five days of incubation with YM and readout on a Glomax Luminometer (Promega, Madison, Wis.). IC50 values were calculated using Prism 7.0 software. Growth assays were compared to day 1 readings and dose response curves were compared to vehicle. Data shown is representative of at least three independent experiments with at least three technical replicates. Dose-response curves and growth assays were analyzed using GraphPad Prism 7.0 software.

[2] = test system: Mel290 cells; experiment: as above; assay type: cell-based, human; conditions: 5 days, UVM line lacking GNAQ/11 mutations
Experimental: as §1, §2

[3] = test system: A375 cells (BRAF^V600E cutaneous melanoma); experiment: as above; assay type: cell-based, human; conditions: 5 days
Experimental: as §1, §2

[4] = test system: A549 cells (KRAS^G12S); experiment: as above; assay type: cell-based, human; conditions: 5 days
Experimental: as §1, §2

[5] = test system: Mel270 cells; experiment: as above; assay type: cell-based, human; conditions: 5 days, approximate
Experimental: as §1, §2

[6] = test system: SK-MEL-2 cells (NRAS^Q61R); experiment: as above; assay type: cell-based, human; conditions: 5 days
Experimental: as §1, §2

[7] = test system: Mel202 cells; experiment: as above; assay type: cell-based, human; conditions: 5 days, approximate
Experimental: as §1, §2

[8] = test system: Mel285 cells; experiment: as above; assay type: cell-based, human; conditions: 5 days, UVM line lacking GNAQ/11 mutations
Experimental: as §1, §2

[9] = test system: human Mel202 uveal melanoma xenografts; experiment: In vivo anti-tumor activity, xenografts in SCID mice; conditions: MEK162 10 mg/kg P.O. b.i.d.; YM-254890 2.5 mg/kg i.p. q.d.; over 20 days; single agents vs vehicle, combination vs vehicle and single agents
Experimental: To evaluate the effect of YM-254890 and binimetinib (MEK162) in vivo, Mel202 uveal melanoma xenografts were established in SCID mice, and the mice were treated with vehicle only, 10 mg/kg MEK162 (P.O., b.i.d.), YM-254890 (2.5 mg/kg i.p., q.d.) or a combination of MEK162 and YM-254890. Tumor volumes were measured over 20 days.

YM-254890
~7.00: pIC50 [1] | pIC50 [5] | pIC50 [7]
moderate reduction: tumor volume [9]
resistant: sensitivity of proliferation to YM [2] | sensitivity of proliferation to YM [3] | sensitivity of proliferation to YM [4] | sensitivity of proliferation to YM [6] | sensitivity of proliferation to YM [8]
